For two molecules, Activity results are on record in ChEMBL document CHEMBL1157502, “Carbaporphyrin ketals as potential agents for a new photodynamic therapy treatment of leishmaniasis” (Bioorg Med Chem, 2008).

Holding throughout (type): functional, organism-based
Test [1] concerns Leishmania tarentolae. In words: Growth inhibition of Leishmania tarentolae axenic promastigotes upto 40 uM.
Test [2] concerns Leishmania tarentolae. In words: Growth inhibition of light-illuminated Leishmania tarentolae promastigotes assessed as enhancement of mitochondrial superoxide production at 5 to 10 uM after 3 hrs by confocal fluorescence microscopy.
For test [3], the system named is Leishmania tarentolae. In words: Growth inhibition of Leishmania tarentolae axenic promastigotes after 2 days relative to ethanol.
Test [4] relates to Leishmania tarentolae. In words: Growth inhibition of Leishmania tarentolae promastigotes assessed as mitochondrial superoxide production at 5 to 10 uM after 3 hrs by confocal fluorescence microscopy.
For test [5], the system named is Leishmania tarentolae. In words: Induction of mitochondrial singlet oxygen production in Leishmania tarentolae promastigotes at 2 uM by confocal fluorescence microscopy.

Active and inactive are the calls of the source. No cut-off for these calls is given here.

Turning to `CCOC1(OCC)/C2=C\C3=NC(=C\C4=NC(=C\c5[nH]c(c(C)c5CC)/C=C\1c1ccccc12)/C(CC)=C4CC)/C(CC)=C3C`, the outcome in the test with Leishmania tarentolae [1] was inactive. In addition, the outcome in the test with Leishmania tarentolae [2] and with Leishmania tarentolae [4] was Active. In addition, in the test with Leishmania tarentolae [3], the Activity entry was “Dose-dependent effect”.

Take `CCC1=C(CC)/C2=C/c3[nH]c(c(C)c3CC)/C=C3/c4ccccc4/C(=C/C4=NC(=C\C1=N2)/C(CC)=C4C)C3(OC)OC`: the outcome in the test on Leishmania tarentolae [1] was inactive. Further, the outcome in the test with Leishmania tarentolae [2], in the test with Leishmania tarentolae [4] and in the test on Leishmania tarentolae [5] was Active. The Activity entry with Leishmania tarentolae [3] was “Dose-dependent effect”.
